For assay [1], the system named is CEM. Put plainly: WST-1 proliferation / cytotoxic test. The class given is cell-based. As to conditions: Homo sapiens, CCRF-CEM, Acute lymphoblastic leukemia, wst-1 cytotoxic test, 72 h. How it is done: (§1) After observation of cells under the microscope, old media were removed and the adherent cells washed gently twice with PBS (Phosphate Buffer Saline, -Ca^2+, -Mg^2+, Lonza cat n°: 17-512F/12). All cells were detached with 3 ml of trypsin/EDTA (chelator of calcium and magnesium ions) (Lonza), incubated for 5 min at 37°C, and examined using a microscope to ensure that the cells were detached and floating. Then, 3 ml TNS (Trypsin Neutralizing Solution, Lonza, France, cat n° CC-5002) or of culture medium were added to inactivate the trypsin, and the cell suspension was transferred in a falcon tube and centrifuged for 7 min at 1400 rpm. The supernatant was removed and the cell pellet resuspended in […] of culture medium. 50 µL of this solution were transferred in 20 µL of isotonic solution and the cells were counted by count cellular (Beckman Coulter). At day 0, 200 µL of cellular suspension (3.10^3 cells/well for the HUVEC cells, breast cancer cells (MDA-MB-231 1.10^4 cells/well, MDA-MB-468 2.10^4 cells/well,); cervical cancer cells (HeLa 5.000 cells/well); colon cancer cells (HCT-116 5.10^3 cells/well, HCT-29 1.1.10^4 cells/well); pancreas cancer cells (Panc-10.5 1.5.10^4 cells/well); brain cancer cells (U87 5.10^3 cells/well, SH-SYSY 8.10^4 cells/well); Lung cancer cells (A 549 1.10^4 cells/well, NCI-H460 1.10^4 cells/well); fibrosarcoma cells (HT 1080 8.10^3 cells/well); Burkitt's lymphoma cells (DAUDI 3.10^4 cells/well); acute lymphoblastic leukemia cells (CEM 3.10^4 cells/well); chronic myeloid leukemia cells (ERY 5.10^4 cells/well); mantle cell lymphoma (GRANTA 1.10^5 cells/well); B lymphoma cells (VAL 1.10^5 cells/well)) were then plated on 96 well plates and incubated at 37°C in a humidified atmosphere of 5% CO2 for 24 h.
(§2) At day 1, the compound 1 of the invention was added at increasing concentrations (0.1 - 10 µM) in the wells and plates were incubated at 37°C in a humidified atmosphere of 5% CO2 for 72 h.
(§3) The cell proliferation WST-1 assay is a colorimetric assay for the quantification of cell proliferation and viability, based on the enzymatic cleavage of the tetrazolium salt WST-1 added to the culture medium, to a water soluble colored formazan dye, detected by absorbance at 450 nm, by mitochondrial succinate-tetrazoliumreductase in viable cells. An augmentation in enzyme activity will then lead to an increase in the amount of formazan dye formed, which directly correlates to the number of metabolically active cells in the culture.
(§4) After an incubation period of 72 h, at day 4, were prepared the 19 mL medium with reagent WST-1 1mL ([…]). The medium was removed from the 96 microplate and 200 µL of solution WST-1/medium were added for each well. The cells were incubated at 37°C in a humidified atmosphere of 5% CO2 for 1h30 and the absorbance at 450-655 nm was measured by Microplate Manager 5.2 (Bio-Rad).
(In general: Tetrazolium assays rely on reduction of a dye to a coloured formazan, in cell work by metabolically active cells.)

Assay [2] deals with HT-1080. Briefly: WST-1 proliferation / cytotoxic test. The class given is cell-based. As to conditions: Homo sapiens, Fibrosarcoma, wst-1 cytotoxic test, 72 h. The method, then:
as §1, §2, §3, §4

The subject of assay [3] is HUVEC cells. Briefly: Tube formation assay. The conditions noted are these: HUVEC on collagen, VEGF-A165-stimulation, Figure 2. The class given is cell-based. How it is done:
Collagen type I (1 mg/ml, BD) was mixed with 0.1N NaOH, 0.1% bicarbonate and 10X in medium EBM-2 and kept on ice until placed into the wells. The assay was prepared in 96-well plate format and the bottom layer of collagen was formed by adding 70 µL of the solution per well and allowing subsequent gelation at 37°C for 30 min. The HUVEC cells were then seeded on collagen at […] cells per well. After monolayer formation (one day), a second layer of collagen 200 µL per well was prepared according to the same protocol and gently placed on top of the cell layer. The compounds of the invention were added to the cells at the adhesion step (concentration corresponding to the Inhibitory Concentration 50 (IC50)). After 24 and 48 h of incubation at 37°C, tube formation was observed and pictures were taken.

Assay [4] addresses T1, Neuropilin-1 (NRP-1) (Homo sapiens, UniProt O14786).
T1 construct: purchased R&D Systems, UK 3870-N1-025
Briefly: ELISA, inhibition of VEGF binding to coated receptor. As to conditions: VEGF-A165b / NRP-1; compound at 10 µM; read-out: Percent of binding inhibition (± SD). The method, then:
(§5) Elisa test was performed covering a 96-well microplate (BD Biosciences, France, cat n° 353046) surface with 100 µL of 1X PBS, pH 7.4 with Ca^2+ and Mg^2+, (Lonza, France, cat n° 17-513F/12) solution containing 0.2 µg/mL of VEGF-R1 (R&D Systems, UK, cat n° 321-FL-050/CF) or 2 µg/mL of NRP-1 (R&D Systems, UK, cat n° 3870-N1-025). The plate was sealed and incubated overnight at 4°C. After 3 washes with 200 µL of 1X PBS 0.5% (v/v) Tween 20 (Sigma, France, cat n° 34078) (Buffer A), the plate was blocked by adding 200 µL of 1× PBS with 0.5% (w/v) BSA (Eurobio, France, cat n° GAUBSA01-65) and agitated at 37°C for 2 h. […] Luminescence was quantified with an EnVision™ 2101 Multilabel reader (Perkin Elmer, USA) and the data analyzed by Wallac Envision manager software. […] Non-specific binding is defined as the signal measured in the absence of receptor coated on the microplate. The specific binding was calculated as the difference between total binding and non-specific binding. The percentage of inhibition was calculated as following: Inhibition % = 100 × ((Signal measured-non specific binding signal))/((Max binding signal obtained without inhibitor-non specific binding signal without receptor)) [formula]
In general terms: An ELISA detects its analyte on a solid surface through an enzyme-linked reagent.

For assay [5], the target named is T2, VEGF-R1 (Homo sapiens, UniProt P17948).
T2 construct: purchased R&D Systems, UK 321-FL-050/CF
T2 sequence (P17948 with tags, fused parts or gaps limits assumed): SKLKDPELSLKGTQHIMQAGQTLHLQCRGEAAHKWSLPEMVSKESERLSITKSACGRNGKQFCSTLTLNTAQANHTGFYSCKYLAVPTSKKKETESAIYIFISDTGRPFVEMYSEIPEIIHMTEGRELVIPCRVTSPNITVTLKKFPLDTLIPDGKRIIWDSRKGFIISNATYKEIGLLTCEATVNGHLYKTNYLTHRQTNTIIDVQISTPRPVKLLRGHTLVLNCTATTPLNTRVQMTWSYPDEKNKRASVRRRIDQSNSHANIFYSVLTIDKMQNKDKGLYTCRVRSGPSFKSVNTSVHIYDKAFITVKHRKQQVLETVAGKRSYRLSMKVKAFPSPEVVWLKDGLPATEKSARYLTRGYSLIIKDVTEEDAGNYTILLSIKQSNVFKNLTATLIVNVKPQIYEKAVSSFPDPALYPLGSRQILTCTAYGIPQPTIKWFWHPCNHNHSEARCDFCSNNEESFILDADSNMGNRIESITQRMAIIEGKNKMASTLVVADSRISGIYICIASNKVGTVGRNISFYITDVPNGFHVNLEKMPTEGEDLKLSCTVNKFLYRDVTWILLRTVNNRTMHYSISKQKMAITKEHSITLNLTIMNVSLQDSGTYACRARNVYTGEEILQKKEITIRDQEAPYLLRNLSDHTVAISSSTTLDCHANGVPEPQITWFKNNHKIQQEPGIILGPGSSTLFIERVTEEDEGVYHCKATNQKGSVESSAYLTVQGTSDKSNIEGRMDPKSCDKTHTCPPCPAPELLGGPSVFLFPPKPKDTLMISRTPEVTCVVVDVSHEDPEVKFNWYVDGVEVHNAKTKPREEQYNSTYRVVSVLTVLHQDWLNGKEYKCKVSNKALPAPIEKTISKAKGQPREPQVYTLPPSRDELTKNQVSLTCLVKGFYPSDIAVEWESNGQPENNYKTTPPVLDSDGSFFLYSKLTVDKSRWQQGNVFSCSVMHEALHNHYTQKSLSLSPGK
Described as above. As to conditions: VEGF-A165b / VEGF-R1; compound at 10 µM; read-out: Percent of binding inhibition (± SD). The method, then:
as §5

One may read the IC50 as the concentration that inhibits the measured activity by half. A high value points to a need for much substance. The inhibition is the drop in the measured response relative to a control, in per cent.

T1 sequence (O14786 22-644 isoform O14786-2 limits assumed): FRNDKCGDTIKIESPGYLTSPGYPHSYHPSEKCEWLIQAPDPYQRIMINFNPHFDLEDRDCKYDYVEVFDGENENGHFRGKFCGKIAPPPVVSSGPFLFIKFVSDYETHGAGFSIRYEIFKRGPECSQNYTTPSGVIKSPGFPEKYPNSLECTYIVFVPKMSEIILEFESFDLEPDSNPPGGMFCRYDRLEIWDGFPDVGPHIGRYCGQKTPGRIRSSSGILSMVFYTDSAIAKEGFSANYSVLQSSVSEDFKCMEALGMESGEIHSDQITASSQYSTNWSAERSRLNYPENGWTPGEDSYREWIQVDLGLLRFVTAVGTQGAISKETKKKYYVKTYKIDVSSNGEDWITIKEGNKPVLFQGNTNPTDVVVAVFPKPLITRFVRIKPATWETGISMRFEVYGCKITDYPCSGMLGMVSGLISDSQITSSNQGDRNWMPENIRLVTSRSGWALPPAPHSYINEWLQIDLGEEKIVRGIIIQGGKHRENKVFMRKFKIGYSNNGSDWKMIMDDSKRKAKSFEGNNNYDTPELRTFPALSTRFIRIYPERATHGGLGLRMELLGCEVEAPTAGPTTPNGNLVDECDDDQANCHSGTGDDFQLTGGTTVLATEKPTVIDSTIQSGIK

Turning to `CCOc1ccccc1NC(=O)c1ccc(C)c(S(=O)(=O)Nc2ccc(C)cc2)c1` [Compound 1, N-(2-ethoxyphenyl)-4-methyl-3-(N-(p-tolyl)sulfamoyl)benzamide], the IC50 in assay [1] came to 100 ± 80 nM; in assay [2], 300 ± 10 nM. The “formation of new blood vessels (tube formation)” value in assay [3] is given as “effectively inhibits the formation of new blood vessels”. The inhibition at 10 µM in assay [4] came out at 32 ± 3.2%; in assay [5], 23 ± 2.2%.

The record behind these values is patent EP2823816A1, “Inhibitors of Neuropilin and use thereof for the treatment of Neuropilin-related diseases” (Tragex Pharma, priority 2013, dated 2015).
